The target in data set [1] is T1, 5-hydroxytryptamine receptor 1A (Homo sapiens, UniProt P08908).
T1 sequence (P08908 whole entry): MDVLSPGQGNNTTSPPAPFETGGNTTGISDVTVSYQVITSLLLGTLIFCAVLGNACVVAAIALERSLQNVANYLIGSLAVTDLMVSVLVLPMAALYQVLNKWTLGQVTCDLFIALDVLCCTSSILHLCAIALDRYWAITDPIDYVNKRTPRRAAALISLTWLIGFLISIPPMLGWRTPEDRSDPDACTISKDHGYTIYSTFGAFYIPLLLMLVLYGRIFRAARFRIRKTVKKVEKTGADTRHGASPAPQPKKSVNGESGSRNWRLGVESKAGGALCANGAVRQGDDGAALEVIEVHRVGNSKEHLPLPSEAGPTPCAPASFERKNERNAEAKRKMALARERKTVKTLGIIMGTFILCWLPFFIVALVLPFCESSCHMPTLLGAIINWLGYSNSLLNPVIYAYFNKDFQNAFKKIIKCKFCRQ
Nature of the data set: Agonist activity at 5HT1A receptor (unknown origin) by calcium-dye based FLIPR assay. Type of data set: functional.

Data set [2] deals with 5-hydroxytryptamine receptor 2A (Homo sapiens, UniProt P28223). Nature of the data set: Antagonist activity at 5HT2A receptor (unknown origin) by HTRF cAMP assay. Type of data set: functional.
Data set [3] deals with T2, D(2) dopamine receptor (Homo sapiens, UniProt P14416). Briefly: Agonist activity at D2 receptor (unknown origin).
Data set [4] addresses T2, D(2) dopamine receptor. Nature of the data set: Agonist activity at D2 receptor (unknown origin) relative to 10 uM dopamine.
Data set [5] deals with Mus musculus. Nature of the data set: Antipsychotic activity in ICR mouse assessed as inhibition of quipazine-induced head-twitch response at 0.3 mg/kg, po administered with compound after quipazine administration measured for 15 mins. Format: functional, organism-based.
Data set [6] addresses Muscarinic acetylcholine receptor M3 (Homo sapiens, UniProt P20309). Nature of the data set: Antagonist activity at muscarinic M3 receptor (unknown origin). Format: ADME.
Data set [7] concerns the target Voltage-gated inwardly rectifying potassium channel KCNH2 (Homo sapiens, UniProt Q12809). Briefly: Inhibition of human ERG.
Data set [8] has as its target T3, 5-hydroxytryptamine receptor 2C (Homo sapiens, UniProt P28335).
T3 sequence (P28335 whole entry): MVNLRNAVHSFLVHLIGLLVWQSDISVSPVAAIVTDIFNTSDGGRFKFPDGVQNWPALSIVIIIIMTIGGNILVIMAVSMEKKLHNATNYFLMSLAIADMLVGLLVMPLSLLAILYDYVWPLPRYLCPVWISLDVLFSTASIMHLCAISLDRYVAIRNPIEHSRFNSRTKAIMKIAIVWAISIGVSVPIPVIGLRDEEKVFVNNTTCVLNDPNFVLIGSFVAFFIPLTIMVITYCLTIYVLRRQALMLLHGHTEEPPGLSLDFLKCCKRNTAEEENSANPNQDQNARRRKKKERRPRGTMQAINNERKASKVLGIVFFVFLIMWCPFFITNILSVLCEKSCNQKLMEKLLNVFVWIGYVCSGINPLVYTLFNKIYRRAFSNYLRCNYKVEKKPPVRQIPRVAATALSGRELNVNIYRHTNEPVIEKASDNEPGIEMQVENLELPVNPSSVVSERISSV
Briefly: Antagonist activity at 5-HT2C receptor (unknown origin).

Data set [9] is described as follows: Cytotoxicity against human Chang cells assessed as reduction in cell viability. Type of data set: cell-based.
In another data set the test system is HEK293. Briefly: Cytotoxicity against human HEK293 cells assessed as reduction in cell viability. Type of data set: cell-based.
In the next data set the target is Histamine H1 receptor (Homo sapiens, UniProt P35367). Briefly: Antagonist activity at H1 receptor (unknown origin). Format: ADME.
Data set [10] in a line: Toxicity in mouse assessed as sedation by measuring spontaneous locomotor activity at 3 to 10 mg/kg, po. Type of data set: organism-based. The conditions noted are these: in vivo.
A short description of data set [11]: Toxicity in mouse assessed as sedation by measuring spontaneous locomotor activity at 0.3 mg/kg, po. The note with it: in vivo. Type of data set: organism-based.
In data set [12] the test system is Mus musculus. Briefly: Antipsychotic activity in po dosed mouse assessed as inhibition of phencyclidine-induced hyperlocomotion administered with compound after phencyclidine challenge measured for 75 mins. Format: functional, organism-based.
The subject of data set [13] is Mus musculus. Nature of the data set: Antipsychotic activity in po dosed ICR mouse assessed as inhibition of quipazine-induced head-twitch response administered with compound after quipazine administration measured for 15 mins. Type of data set: functional, organism-based.
For data set [14], the target named is Sodium-dependent serotonin transporter (Homo sapiens) (UniProt P31645). The conditions noted are these: 400 nM.
Description: Antagonist activity at SERT receptor (unknown origin) at 400 nM by fluorescence based assay relative to control

The structures appear in SMILES notation. pEC50, pIC50: −log10 of the molar value. Converted amounts (≈) assume the structure as drawn. The source made the active and inactive calls. The rule behind the calls is not given here. Some results are limits rather than exact numbers.

Sequence of Muscarinic acetylcholine receptor M3 (P20309 whole entry): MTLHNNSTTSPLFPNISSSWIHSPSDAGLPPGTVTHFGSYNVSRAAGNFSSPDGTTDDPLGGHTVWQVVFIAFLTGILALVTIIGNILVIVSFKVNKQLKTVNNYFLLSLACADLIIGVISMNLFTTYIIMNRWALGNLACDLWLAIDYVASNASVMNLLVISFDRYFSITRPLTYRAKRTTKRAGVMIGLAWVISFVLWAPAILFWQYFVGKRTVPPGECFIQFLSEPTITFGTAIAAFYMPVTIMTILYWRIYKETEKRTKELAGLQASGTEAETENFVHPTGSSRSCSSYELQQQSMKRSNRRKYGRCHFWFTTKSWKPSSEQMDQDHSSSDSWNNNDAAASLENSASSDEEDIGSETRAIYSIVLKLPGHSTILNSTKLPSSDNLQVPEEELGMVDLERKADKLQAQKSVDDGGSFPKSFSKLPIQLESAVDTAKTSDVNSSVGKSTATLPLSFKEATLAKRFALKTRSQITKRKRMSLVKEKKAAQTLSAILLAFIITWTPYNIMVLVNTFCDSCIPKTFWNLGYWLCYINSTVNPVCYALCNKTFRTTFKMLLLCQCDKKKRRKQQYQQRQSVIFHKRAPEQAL
Sequence of 5-hydroxytryptamine receptor 2A (P28223 whole entry): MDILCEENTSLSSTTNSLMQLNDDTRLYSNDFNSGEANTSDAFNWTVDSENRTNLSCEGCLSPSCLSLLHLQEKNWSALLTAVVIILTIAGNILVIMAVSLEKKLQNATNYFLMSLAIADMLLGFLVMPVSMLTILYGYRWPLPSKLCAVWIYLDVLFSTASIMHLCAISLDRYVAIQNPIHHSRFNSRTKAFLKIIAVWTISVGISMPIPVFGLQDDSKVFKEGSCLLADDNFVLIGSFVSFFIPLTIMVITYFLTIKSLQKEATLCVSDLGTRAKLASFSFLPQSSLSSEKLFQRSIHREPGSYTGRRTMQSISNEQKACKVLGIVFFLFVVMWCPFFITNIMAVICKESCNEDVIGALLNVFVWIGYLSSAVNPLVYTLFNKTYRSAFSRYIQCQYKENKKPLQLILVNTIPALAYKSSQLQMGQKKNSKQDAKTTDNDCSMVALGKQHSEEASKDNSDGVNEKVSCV
T2 sequence (P14416 whole entry): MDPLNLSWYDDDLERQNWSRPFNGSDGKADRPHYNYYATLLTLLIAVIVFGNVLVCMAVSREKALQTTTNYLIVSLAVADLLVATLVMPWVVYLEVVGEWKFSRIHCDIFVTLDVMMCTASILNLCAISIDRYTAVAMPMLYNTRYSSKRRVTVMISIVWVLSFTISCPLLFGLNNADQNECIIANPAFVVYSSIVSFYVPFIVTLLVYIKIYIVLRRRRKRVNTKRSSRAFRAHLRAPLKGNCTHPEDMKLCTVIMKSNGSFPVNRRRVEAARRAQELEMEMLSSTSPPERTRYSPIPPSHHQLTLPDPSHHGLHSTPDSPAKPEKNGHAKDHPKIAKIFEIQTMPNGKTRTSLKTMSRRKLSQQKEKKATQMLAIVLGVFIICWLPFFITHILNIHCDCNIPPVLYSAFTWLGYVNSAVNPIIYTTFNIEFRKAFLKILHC
Sequence of Voltage-gated inwardly rectifying potassium channel KCNH2 (Q12809 whole entry): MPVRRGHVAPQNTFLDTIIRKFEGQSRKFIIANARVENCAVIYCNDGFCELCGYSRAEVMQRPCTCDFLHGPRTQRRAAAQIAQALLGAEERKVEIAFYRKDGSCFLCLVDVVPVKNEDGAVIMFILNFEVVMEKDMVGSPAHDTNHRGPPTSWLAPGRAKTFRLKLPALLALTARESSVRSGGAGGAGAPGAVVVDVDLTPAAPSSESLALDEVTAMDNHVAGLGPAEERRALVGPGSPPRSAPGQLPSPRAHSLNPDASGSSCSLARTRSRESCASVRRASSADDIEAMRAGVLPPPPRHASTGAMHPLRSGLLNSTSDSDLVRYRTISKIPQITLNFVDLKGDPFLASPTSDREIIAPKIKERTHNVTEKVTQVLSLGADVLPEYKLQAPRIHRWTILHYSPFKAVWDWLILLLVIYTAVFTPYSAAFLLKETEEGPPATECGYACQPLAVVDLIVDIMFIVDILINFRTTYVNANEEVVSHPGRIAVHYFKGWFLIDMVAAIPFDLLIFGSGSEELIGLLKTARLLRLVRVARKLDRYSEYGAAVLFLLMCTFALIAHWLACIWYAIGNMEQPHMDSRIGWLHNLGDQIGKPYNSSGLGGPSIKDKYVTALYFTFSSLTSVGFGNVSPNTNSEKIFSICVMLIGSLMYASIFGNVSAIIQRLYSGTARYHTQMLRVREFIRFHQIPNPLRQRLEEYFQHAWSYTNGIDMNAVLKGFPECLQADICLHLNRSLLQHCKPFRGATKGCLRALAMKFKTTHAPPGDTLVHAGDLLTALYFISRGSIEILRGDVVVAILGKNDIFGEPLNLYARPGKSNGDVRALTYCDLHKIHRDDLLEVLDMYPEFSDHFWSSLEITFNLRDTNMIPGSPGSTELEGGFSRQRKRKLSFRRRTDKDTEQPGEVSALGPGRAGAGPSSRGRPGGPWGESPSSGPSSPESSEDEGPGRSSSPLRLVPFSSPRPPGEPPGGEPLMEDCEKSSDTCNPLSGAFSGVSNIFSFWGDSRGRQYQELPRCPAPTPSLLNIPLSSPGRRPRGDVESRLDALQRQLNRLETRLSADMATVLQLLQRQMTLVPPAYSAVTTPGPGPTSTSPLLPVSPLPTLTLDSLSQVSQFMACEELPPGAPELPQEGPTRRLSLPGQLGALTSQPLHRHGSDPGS
Sequence of Histamine H1 receptor (P35367 whole entry): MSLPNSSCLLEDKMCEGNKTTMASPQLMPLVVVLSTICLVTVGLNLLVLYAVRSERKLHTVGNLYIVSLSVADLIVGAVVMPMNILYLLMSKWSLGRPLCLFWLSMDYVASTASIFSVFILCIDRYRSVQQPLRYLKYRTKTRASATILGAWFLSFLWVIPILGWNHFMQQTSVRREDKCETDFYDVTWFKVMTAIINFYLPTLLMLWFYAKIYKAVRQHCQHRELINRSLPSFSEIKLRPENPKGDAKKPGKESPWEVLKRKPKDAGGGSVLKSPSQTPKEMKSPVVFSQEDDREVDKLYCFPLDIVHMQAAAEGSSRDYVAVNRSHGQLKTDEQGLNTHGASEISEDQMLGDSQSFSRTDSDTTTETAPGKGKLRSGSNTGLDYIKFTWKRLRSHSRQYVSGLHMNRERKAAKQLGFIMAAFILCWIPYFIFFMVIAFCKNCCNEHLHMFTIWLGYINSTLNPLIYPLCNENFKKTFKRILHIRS
Sequence of Sodium-dependent serotonin transporter (Homo sapiens) (P31645 whole entry, looked up): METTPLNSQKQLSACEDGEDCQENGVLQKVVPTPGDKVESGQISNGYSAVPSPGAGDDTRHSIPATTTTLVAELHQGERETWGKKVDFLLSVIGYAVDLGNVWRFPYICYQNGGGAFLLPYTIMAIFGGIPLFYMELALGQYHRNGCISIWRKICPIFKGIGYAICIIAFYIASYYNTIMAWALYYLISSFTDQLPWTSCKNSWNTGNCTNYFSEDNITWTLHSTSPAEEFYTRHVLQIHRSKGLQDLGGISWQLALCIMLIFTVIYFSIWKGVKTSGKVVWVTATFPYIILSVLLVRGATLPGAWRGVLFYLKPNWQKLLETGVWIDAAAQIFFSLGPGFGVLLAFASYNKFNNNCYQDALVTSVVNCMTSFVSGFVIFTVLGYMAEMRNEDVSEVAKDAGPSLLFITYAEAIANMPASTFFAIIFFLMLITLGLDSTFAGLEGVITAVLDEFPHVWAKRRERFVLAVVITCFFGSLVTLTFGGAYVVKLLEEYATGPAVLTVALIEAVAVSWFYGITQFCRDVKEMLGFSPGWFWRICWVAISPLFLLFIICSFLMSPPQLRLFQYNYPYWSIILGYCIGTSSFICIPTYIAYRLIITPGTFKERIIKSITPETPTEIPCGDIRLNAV

On to `N#Cc1ccn2c(=O)n(CCCCN3CCN(c4cccc5sccc45)CC3)nc2c1`, for which the negative-log EC50 (pEC50) in data set [1] is 8.23. This compound had a pIC50 in data set [2] of 6.14.

With `O=c1n(CCCN2CCN(c3cccc(Cl)c3)CC2)nc2ccccn12` [TRAZODONE], the EC50 entry on D(2) dopamine receptor [3] is reported as “Not Active”. Also, at D(2) dopamine receptor [4], the maximal effect (Emax) was under 20%.

Regarding `O=c1n(CCCCN2CCN(c3cccc4sccc34)CC2)nc2ccc(Cl)cn12`, the pEC50 in [1] is 8.02. This compound showed a pIC50 in data set [2] of 6.84.

For `COc1cccc2nn(CCCCN3CCN(c4cccc5sccc45)CC3)c(=O)n12`, the inhibition result with Mus musculus [5] was “Active”. Also, the pEC50 in data set [1] is 8.70. Besides, the pIC50 in data set [2] is 7.89.

`O=c1n(CCCCN2CCN(c3cccc4sccc34)CC2)nc2c(F)cccn12`: the inhibition entry with Mus musculus [5] was “Active”. The pIC50 is under 5.00 in data set [6], 5.66 in data set [7], 5.68 in data set [8] and 7.45 in data set [2]. The pEC50 in [1] is 8.74.

As to `O=c1n(CCCCN2CCN(c3cccc4scnc34)CC2)nc2c(F)cccn12`, in [1], the negative-log EC50 (pEC50) is 10.00. Besides, in [2], the pIC50 is 7.11.

For the compound `O=c1n(CCCCN2CCC(c3cc(F)cc4oncc34)CC2)nc2ccccn12`, in [1], the pEC50 was under 5.00. In data set [2], this compound had a pIC50 of 7.82.

`O=c1n(CCCCN2CCN(c3cccc4sccc34)CC2)nc2ccc(F)cn12`: the negative-log EC50 (pEC50) in data set [1] was 10.00. Also, the negative-log IC50 (pIC50) in [2] is 7.33.

`O=c1n(CCCCN2CCN(c3cccc4sc(F)cc34)CC2)nc2c(F)cccn12`: the negative logarithm of the EC50 (pEC50) in data set [1] was 8.82. Further, the pIC50 in data set [2] is 5.97.

Consider `O=c1n(CCCCN2CCN(c3cccc4sccc34)CC2)nc2c(Br)cccn12`, for which the negative-log EC50 (pEC50) in data set [1] was 8.15. In addition, the pIC50 in [2] is 6.88.

In the case of `O=c1ccc2ccc(OCCCCN3CCN(c4cccc5sccc45)CC3)cc2[nH]1` [BREXPIPRAZOLE], the negative logarithm of the EC50 (pEC50) on D(2) dopamine receptor [3] (read-out: EC50) was 8.20. The half-inhibitory concentration (IC50) in data set [9] worked out at 44.2 µg/mL (≈ 102 µM); in the data set with HEK293, 19.1 µg/mL (≈ 44.1 µM). Moreover, on D(2) dopamine receptor [4], the Emax stood at 29%.

Regarding `COc1cccn2c(=O)n(CCCCN3CCN(c4cccc5sccc45)CC3)nc12`, the negative-log EC50 (pEC50) in data set [1] is 8.66. The compound also showed a negative-log IC50 (pIC50) in data set [2] of 7.07.

On to `O=c1n(CCCCN2CCN(c3cccc4sccc34)CC2)nc2c(Cl)cc(Cl)cn12`, for which the pEC50 in [1] is 10.00. The same compound gave a negative-log IC50 (pIC50) in [2] of 6.19.

In the case of `N#Cc1cccn2c(=O)n(CCCCN3CCN(c4cccc5sccc45)CC3)nc12`, the pEC50 in data set [1] is 8.85. Also, the pIC50 in data set [2] was 6.81.

Regarding `O=c1n(CCCCN2CCN(c3cccc4sccc34)CC2)nc2ccccn12`, the inhibition result in the data set on Mus musculus [5] was “Active”. Also, the pIC50 in data set [6] was under 5.00; at Histamine H1 receptor, 7.05; in [7] it was 5.52; in [8], under 5.00; in [2], 7.47. Moreover, the Activity result in [10] is “Toxic”; in data set [11], “Non-Toxic”. Besides, the inhibition result in the data set on Mus musculus [12] and with Mus musculus [13] was “Dose-dependent effect” throughout. Also, the pEC50 in data set [1] was 8.74 to 8.77. Moreover, the IC50 in the data set on HEK293 worked out at 108 µg/mL (≈ 265 µM).

Turning to `O=C1CCc2ccc(OCCCCN3CCN(c4cccc(Cl)c4Cl)CC3)cc2N1`, in the data set on Mus musculus [5], the inhibition entry was “Active”. In data set [14], this compound displayed an inhibition of 21%.

Consider `N#Cc1ccc2nn(CCCCN3CCN(c4cccc5sccc45)CC3)c(=O)n2c1`, for which the negative-log IC50 (pIC50) in data set [6] was under 5.00; at Histamine H1 receptor it was 7.12; in data set [7], 5.98; in data set [8] it was 5.48; in data set [2], 7.96. Also, in data set [1], the negative logarithm of the EC50 (pEC50) was 8.01.

As for `N#Cc1cccc2nn(CCCCN3CCN(c4cccc5sccc45)CC3)c(=O)n12`, the negative logarithm of the EC50 (pEC50) in data set [1] was 7.69. Also, in data set [2], the pIC50 is 6.98.

Regarding `Cc1nc2n(c(=O)c1CCN1CCC(c3noc4cc(F)ccc34)CC1)CCCC2` [RISPERIDONE], the EC50 result on D(2) dopamine receptor [3] is reported as “Not Active”. The IC50 in [9] was 239 µg/mL (≈ 582 µM); in the data set with HEK293, over 600 µg/mL. For the same compound, the maximum response (Emax) on D(2) dopamine receptor [4] was under 20%.

On to `O=c1n(CCCCN2CCN(c3cccc4sccc34)CC2)nc2c(Cl)cccn12`, for which the pEC50 in data set [1] was 7.92. Further, the negative-log IC50 (pIC50) in [2] was 6.43.

Turning to `O=c1n(CCCCN2CCN(c3cccc4sccc34)CC2)nc2c(F)cc(F)cn12`, in [1], the pEC50 is 8.92. This compound also gave a negative logarithm of the IC50 (pIC50) in data set [2] of 7.57.

As for `O=c1n(CCCCN2CCN(c3cccc4scnc34)CC2)nc2ccccn12`, the pEC50 in data set [1] is 8.55. Also, the negative-log IC50 (pIC50) in data set [2] was 5.56.

These data come from ChEMBL document CHEMBL4619707, “Synthesis and biological investigation of triazolopyridinone derivatives as potential multireceptor atypical antipsychotics” (Bioorg Med Chem Lett, 2020).
